Laboratory results: patent US20150105252A1, “SUBSTITUTED PYRAZOLES AS HERBICIDES” (E I DU PONT DE NEMOURS AND COMPANY, priority 2013, published 2015)

Tests used:
pigweed = assay: Test A postemergence; format: in vivo, Amaranthus retroflexus
In short: (§1)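 Growth medium: loam soil blended with sand. Preemergence treatment used a directed soil spray right after planting; postemergence treatment targeted seedlings at one to two leaves (2–10 cm height). Response was judged by eye relative to untreated plants about 10 days later on a 0–100 control scale.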

morningglory [1] = assay: Test A preemergence; format: in vivo, Ipomoea spp.; settings: preemergence; for Morningglory plant response rating (0 to 100 scale): 125 g ai/ha, visual injury approx. 10 days after treatment; for Morningglory plant response rating: 500 g ai/ha, visual injury after approx. 10 days, 0 to 100 scale (0 no effect, 100 complete control)
In short: as §1

waterhemp = assay: Test C preemergence; format: in vivo, Amaranthus rudis
Description: (§2) Seeds of plant species selected from blackgrass (Alopecurus myosuroides), ryegrass, Italian (Italian ryegrass, Lolium multiflorum), wheat (winter wheat, Triticum aestivum), galium (catchweed bedstraw, Galium aparine), corn (Zea mays), crabgrass, large (large crabgrass, Digitaria sanguinalis), foxtail, giant (giant foxtail, Setaria faberii), johnsongrass (Sorghum halepense), lambsquarters (Chenopodium album), morningglory (Ipomoea coccinea), nutsedge, yellow (yellow nutsedge, Cyperus esculentus), pigweed (redroot pigweed, Amaranthus retroflexus), ragweed (common ragweed, Ambrosia elation), soybean (Glycine max), barnyardgrass (Echinochloa crus-galli), oilseed rape (Brassica napus), waterhemp (common waterhemp, Amaranthus rudis), oat, wild (wild oat, Avena fatua), kochia (Kochia scoparia), Surinam grass (Brachiaria decumbens), foxtail, green (green foxtail, Setaria viridis), goosegrass (Eleusine indica), bromegrass, downy (downy bromegrass, Bromus tectorum), nightshade (eastern black nightshade, Solanum ptycanthum), cocklebur (common cocklebur, Xanthium strumarium), cupgrass, woolly (woolly cupgrass, Eriochloa villosa), bermudagrass (Cynodon dactylon), sunflower, (common oilseed sunflower, Helianthus annuus), Russian thistle (Salsola kali), and velvetleaf (Abutilon theophrasti) were planted into a blend of loam soil and sand and treated preemergence with test chemicals formulated in a non-phytotoxic solvent mixture which included a surfactant.
(§3) At the same time, plants selected from these crop and weed species and also chickweed (common chickweed, Stellaria media), canarygrass (littleseed canarygrass, Phalaris minor), and deadnettle (henbit deadnettle, Lamium amplexicaule), were planted in pots containing Redi-Earth® planting medium (Scotts Company, 14111 Scottslawn Road, Marysville, Ohio 43041) comprising spaghnum peat moss, vermiculite, wetting agent and starter nutrients and treated with postemergence applications of test chemicals formulated in the same manner. Plants ranged in height from 2 to 18 cm (1- to 4-leaf stage) for postemergence treatments. Treated plants and controls were maintained in a greenhouse for 13 to 15 days, after which time all species were compared to controls and visually evaluated. Plant response ratings, summarized in Table C, are based on a scale of 0 to 100 where 0 is no effect and 100 is complete control. A dash (-) response means no test result.

barnyardgrass = assay: Test B flood; format: in vivo, Echinochloa crus-galli; settings: 250 g ai/ha, visual rating on 0 to 100 scale (0 no effect, 100 complete control), 13 to 15 days
In short: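 Flooded-pot test: compound dosed into 3 cm of standing water above soil when plants had two leaves. Visual control ratings (0–100) versus untreated plants after 13–15 d.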

foxtail, giant = assay: Test C preemergence; format: in vivo, Setaria faberii
Description: as §2, §3

crabgrass, large [2] = assay: Test C preemergence; format: in vivo, Digitaria sanguinalis
Description: as §2, §3

morningglory [3] = assay: Test A postemergence; format: in vivo, Ipomoea spp.
In short: as §1

corn = assay: Test C postemergence; format: in vivo, Zea mays
Description: as §2, §3

crabgrass, large [4] = assay: Test C postemergence; format: in vivo, Digitaria sanguinalis
Description: as §2, §3

oilseed rape = assay: Test C postemergence; format: in vivo, Brassica napus; settings: postemergence
Description: as §2, §3

wheat = assay: Test C postemergence; format: in vivo, Triticum aestivum; settings: postemergence
Description: as §2, §3

blackgrass = assay: Test C postemergence; format: in vivo, Alopecurus myosuroides
Description: as §2, §3

johnsongrass = assay: Test C postemergence; format: in vivo, Sorghum halepense
Description: as §2, §3

[5] = Postemergence, 500 g ai/ha, 0 to 100 scale (0 no effect, 100 complete control)
[6] = postemergence, 125 g ai/ha, about 10 days, visual rating on 0 to 100 scale (0 no effect, 100 complete control)
[7] = preemergence, 31 g ai/ha, visual rating, scale 0 to 100 (0 no effect, 100 complete control), 13 to 15 days
[8] = preemergence, 62 g ai/ha, scale 0 to 100 (0 no effect, 100 complete control), 13 to 15 days
[9] = preemergence, 125 g ai/ha, 13 to 15 days, scale 0 to 100, 0 = no effect, 100 = complete control
[10] = preemergence, 250 g ai/ha, scale 0 to 100, 0 is no effect, 100 is complete control
[11] = Postemergence, 125 g ai/ha, 0 to 100 scale, 0 no effect, 100 complete control
[12] = Postemergence, 31 g ai/ha, visually evaluated after 13 to 15 days
[13] = postemergence, 62 g ai/ha, scale 0 to 100
[14] = postemergence, 250 g ai/ha, scale 0 to 100 (0 no effect, 100 complete control)
[15] = postemergence, 125 g ai/ha, scale 0 to 100, 0 no effect, 100 complete control
[16] = 250 g ai/ha, scale 0 to 100 (0 no effect, 100 complete control)
[17] = Preemergence, rate head not shown (block before 16 g ai/ha), scale 0 to 100

CCNC(=O)c1cc(CCCl)n(Cc2ccnc(C(F)(F)F)c2)n1 [Compound 179]
Pigweed plant response rating (pigweed; [5]): 100 | Pigweed plant response rating (pigweed; [6]): 100 | Morningglory plant response rating (0 to 100 scale) (morningglory [1]): 80 | Morningglory plant response rating (morningglory [1]): 100 | Waterhemp plant response rating (waterhemp; [7]): 100 | Waterhemp plant response rating (waterhemp; [8]): 100 | Plant response rating, Waterhemp (waterhemp; [9]): 100 | Waterhemp plant response rating (waterhemp; [10]): 100 | Plant response rating, Barnyardgrass (barnyardgrass): 25 | Foxtail, Giant plant response rating (foxtail, giant; [7]): 98 | Foxtail, Giant plant response rating (foxtail, giant; [8]): 100 | Plant response rating, Foxtail, Giant (foxtail, giant; [9]): 100 | Foxtail, Giant plant response rating (foxtail, giant; [10]): 100 | Crabgrass, Large plant response rating (crabgrass, large [2]; [7]): 100 | Crabgrass, Large plant response rating (crabgrass, large [2]; [8]): 100 | Plant response rating, Crabgrass, Large (crabgrass, large [2]; [9]): 100 | Crabgrass, Large plant response rating (crabgrass, large [2]; [10]): 100 | Morningglory plant response rating (morningglory [3]; [5]): 100 | Morningglory plant response rating (morningglory [3]; [6]): 60

CCONC(=O)c1cc(OCC)n(Cc2ccnc(C(F)(F)F)c2)n1 [Compound 195]
Pigweed plant response rating (pigweed; [11]): 100 | Pigweed plant response rating (pigweed; [5]): 100 | Morningglory plant response rating (0 to 100 scale) (morningglory [1]): 90 | Morningglory plant response rating (morningglory [1]): 100 | Waterhemp plant response rating (waterhemp; [8]): 100 | Plant response rating, Waterhemp (waterhemp; [9]): 100 | Waterhemp plant response rating (waterhemp; [10]): 100 | Plant response rating, Barnyardgrass (barnyardgrass): 10 | Foxtail, Giant plant response rating (foxtail, giant; [7]): 65 | Foxtail, Giant plant response rating (foxtail, giant; [8]): 85 | Plant response rating, Foxtail, Giant (foxtail, giant; [9]): 100 | Foxtail, Giant plant response rating (foxtail, giant; [10]): 100 | Crabgrass, Large plant response rating (crabgrass, large [2]; [7]): 100 | Crabgrass, Large plant response rating (crabgrass, large [2]; [8]): 95 | Plant response rating, Crabgrass, Large (crabgrass, large [2]; [9]): 100 | Crabgrass, Large plant response rating (crabgrass, large [2]; [10]): 100 | Morningglory plant response rating (morningglory [3]; [11]): 70 | Morningglory plant response rating (morningglory [3]; [5]): 100

CCc1cc(C(=O)NCC(F)(F)F)nn1Cc1cc(OC(F)F)nn1C [Compound 206]
Plant response rating (scale of 0 to 100 where 0 is no effect and 100 is complete control), Corn (corn; [12]): 5 | Corn plant response rating (corn; [13]): 5 | Plant response rating, Corn (corn; [14]): 5 | Plant response rating, Corn (corn; [15]): 5 | Plant response rating (scale of 0 to 100 where 0 is no effect and 100 is complete control), Crabgrass, Large (crabgrass, large [4]; [12]): 5 | Crabgrass, Large plant response rating (crabgrass, large [4]; [13]): 5 | Plant response rating, Crabgrass, Large (crabgrass, large [4]; [14]): 5 | Plant response rating, Crabgrass, Large (crabgrass, large [4]; [15]): 5 | Pigweed plant response rating (pigweed; [11]): 80 | Pigweed plant response rating (pigweed; [5]): 100 | Oilseed Rape plant response rating (oilseed rape; 62 g ai/ha, scale 0 to 100): 5 | Plant response rating, Oilseed Rape (oilseed rape; [16]): 50 | Plant response rating, Oilseed Rape (oilseed rape; 125 g ai/ha, scale 0 to 100, 0 no effect, 100 complete control): 5 | Plant response rating, Wheat (wheat; [16]): 0 | Wheat plant response rating (wheat; scale 0 to 100): 0 | Plant response rating, Barnyardgrass (barnyardgrass): 0 | Plant response rating (scale of 0 to 100 where 0 is no effect and 100 is complete control), Blackgrass (blackgrass; [12]): 0 | Blackgrass plant response rating (blackgrass; [13]): 0 | Plant response rating, Blackgrass (blackgrass; [14]): 5 | Plant response rating, Blackgrass (blackgrass; [15]): 5 | Plant response rating (scale of 0 to 100 where 0 is no effect and 100 is complete control), Johnsongrass (johnsongrass; [12]): 0 | Johnsongrass plant response rating (johnsongrass; [13]): 0 | Plant response rating, Johnsongrass (johnsongrass; [14]): 5 | Plant response rating, Johnsongrass (johnsongrass; [15]): 5

CCc1cc(C(=O)NC2CC2)nn1Cc1cc(C(F)(F)C(F)(F)F)nn1C [Compound 226]
Pigweed plant response rating (pigweed; [11]): 100 | Pigweed plant response rating (pigweed; [5]): 100 | Morningglory plant response rating (0 to 100 scale) (morningglory [1]): 100 | Plant response rating, Waterhemp (waterhemp; [17]): 100 | Waterhemp plant response rating (waterhemp; [8]): 100 | Plant response rating, Waterhemp (waterhemp; [9]): 100 | Waterhemp plant response rating (waterhemp; [10]): 100 | Plant response rating, Barnyardgrass (barnyardgrass): 50 | Plant response rating, Foxtail, Giant (foxtail, giant; [17]): 80 | Foxtail, Giant plant response rating (foxtail, giant; [8]): 90 | Plant response rating, Foxtail, Giant (foxtail, giant; [9]): 100 | Foxtail, Giant plant response rating (foxtail, giant; [10]): 100 | Plant response rating, Crabgrass, Large (crabgrass, large [2]; [17]): 80 | Crabgrass, Large plant response rating (crabgrass, large [2]; [8]): 100 | Plant response rating, Crabgrass, Large (crabgrass, large [2]; [9]): 100 | Crabgrass, Large plant response rating (crabgrass, large [2]; [10]): 100 | Morningglory plant response rating (morningglory [3]; [11]): 70 | Morningglory plant response rating (morningglory [3]; [5]): 100
